Assay results: paper PMC5626944 (Frontiers in Pharmacology, 2017)
Where two headings read alike, the source gives them in different places.

Legend:
α6β2* nAChRs = α6β2* nAChRs (Mus musculus, UniProt Q9ERK7+Q9R0W9); assay: biochemical; type: biochemical; details: for EC50: read-out: Neurotransmitter release EC50 (converted); for Emax: relative to nicotine
Description: Regions of interest were dissected from fresh mouse brains and homogenized in ice-cold isotonic sucrose (0.32 M), buffered with HEPES (5 mM, pH 7.5). The suspension was centrifuged at 12,000 × g for 20 min. The pellet was re-suspended in the appropriate uptake buffer ([Grady et al., 2001]; [Salminen et al., 2004]; [Marks et al., 2006]) and used immediately.
Superfusion was carried out at 22°C using a buffer containing: NaCl, 128 mM; KCl, 2.4 mM; CaCl2, 3.2 mM; MgSO4, 1.2 mM; KH2PO4, 1.2 mM; HEPES, 25 mM; glucose, 10 mM; ascorbic acid, 1 mM; pargyline, 0.01 mM; 0.1% BSA; nomifensine, 1 μM (to prevent the re-uptake of dopamine); atropine, 1 μM (to prevent muscarinic receptor activation); pH 7.5. Superfusion proceeded at 0.7 mL/min for 10 min before stimulation with agonist for 20 s. Selected aliquots were perfused with α-CtxMII (50 nM) for 3 min immediately before stimulation. This concentration of α-CtxMII was sufficient to inhibit α6β2^∗-nAChRs in the mouse striatum ([Salminen et al., 2004], [2007]). Fractions (∼0.1 mL) were collected into 96-well plates at 10 s intervals for 4 min (starting ∼1 min before stimulation). After adding 0.15 mL of Optiphase SuperMix scintillation cocktail, radioactivity was measured using a 1450 MicroBeta TriLux counter (Perkin Elmer Life Sciences).

α4-GFPβ2DM nAChRs = molecular target: T1, α4-GFPβ2DM nAChRs (Mus musculus, UniProt O70174+Q9ERK7, L349M/R365A/R366A/R368A); assay: Whole-cell patch-clamp recordings in transfected neuro-2a cells; type: cell-based; details: α4β2 single component, transfected in Neuro-2a cells
T1 construct: expressed in transfected cells; host or cells: mouse neuroblastoma neuro-2a (ATCC CCL-131)
Description: (§1) Cells were transfected with 500 ng of: α4-GFP and β2DM or α6-GFP, β2DM, and β3 nAChR subunits.
(§2) For the patch-clamp experiments, we used mouse neuro-2a cells. […] Transfected cells displaying eGFP fluorescence were identified for patching using an inverted epifluorescence microscope. […] The resistance of the patch pipettes was 2–4 MΩ. The extracellular solution contained (in mM): 140 NaCl, 5 KCl, 2 CaCl2, 1 MgCl2, 10 HEPES, and 10 glucose (320 mOsm, pH set to 7.3 with Tris-base). […] The data were sampled at 10 kHz and low-pass filtered at 2 kHz prior to digitization. All experiments were performed at 24°C and the recording chamber was continually perfused with extracellular solution. To avoid receptor desensitization by repetitive agonist application, agonists were applied at intervals ≥3 min. An Octaflow II superfusion system (ALA Scientific Instruments) was used to apply the agonist for concentration-response studies. Applications were 500 ms at 6 psi. […] Following the collection of the full concentration range an additional test pulse was repeated to assess accumulated desensitization.
(§3) Data were fit to a single Hill term using Origin 10 software. Data are expressed as mean ± SEM.

α6-GFPβ2DMβ3 nAChRs = molecular target: T2, α6-GFPβ2DMβ3 nAChRs (Mus musculus, UniProt Q9ERK7+Q9R0W9, L349M/R365A/R366A/R368A); assay: as above; type: cell-based
T2 construct: expressed in transfected cells; host or cells: mouse neuroblastoma neuro-2a (ATCC CCL-131)
Description: as §1, §2, §3

Muscarinic, M5 (h) = assay: NovaScreen competition binding; design: species or system human; details: 1 µM
[1] = tested on: Glutamate, Kainate Site (Ionotropic); assay: NovaScreen competition binding; details: 1 µM
Serotonin, 5HT3 = tested on: T3, Serotonin, 5HT3; assay: NovaScreen competition binding; design: species or system mouse; details: 1 µM
T3 construct: endogenous in cells; host or cells: N1E-115 (mouse neuroblastoma)
Text: Assays included the nicotinic drug [^3H]epibatidine binding to α-bungarotoxin-insensitive nAChRs, the 5-HT3 inhibitor [N-methyl-^3H]GR65630 to mouse receptors in N1E-115 cells, and human receptors expressed in a clonal cell line. Other assays included monoamine oxidase A, monoamine oxidase B, 5-HT transporter, norepinephrine transporter, and dopamine transporter, as well as other. G-protein-coupled receptors, ion channels, enzymes, and transporters.

[2] = tested on: Calcium Channel, Type L (Dihydropyridine Site); assay: NovaScreen competition binding; details: 1 µM
male Wistar rats = assay: Rat intravenous nicotine self-administration; type: in vivo; details: 0.01, 0.025, 0.05, 0.08 mg/kg ip, 20 min before session; nicotine 0.03 mg/kg/inf
Text: Operant chambers (Med Associates, East Fairfield, VT, United States) were used for food delivery and the intravenous self-administration (IVSA) of nicotine.
For IV catheter implantation, the rats were anesthetized using 1–3% isoflurane inhalation in oxygen and surgically prepared with catheters in the left jugular vein ([Kenny et al., 2008]). The catheter was passed subcutaneously to a polyethylene assembly mounted on the animals’ back. Prior to training, rats were food-restricted so that their body weight was approximately ∼85% that of free-feeding rats. They were then trained to press an active lever for 45 mg food pellets on a fixed ratio 5 time-out 20 s (FR5TO20) schedule of reinforcement. […] Pressing this lever was recorded but was not associated with scheduled consequence. Rats were permitted to respond for food rewards until a reliable response was achieved, defined as >90 pellets earned per 1 h session for three consecutive sessions. Rats were then permitted to respond for food (n = 8) or for nicotine infusions (n = 9) during 1 h daily sessions under the FR5TO20 schedule. […]
Twenty min after injection, rats were placed in the operant boxes and responding for food rewards or nicotine infusions was recorded. […]

α6β2* nAChRs, sequence (Q9R0W9 31-494): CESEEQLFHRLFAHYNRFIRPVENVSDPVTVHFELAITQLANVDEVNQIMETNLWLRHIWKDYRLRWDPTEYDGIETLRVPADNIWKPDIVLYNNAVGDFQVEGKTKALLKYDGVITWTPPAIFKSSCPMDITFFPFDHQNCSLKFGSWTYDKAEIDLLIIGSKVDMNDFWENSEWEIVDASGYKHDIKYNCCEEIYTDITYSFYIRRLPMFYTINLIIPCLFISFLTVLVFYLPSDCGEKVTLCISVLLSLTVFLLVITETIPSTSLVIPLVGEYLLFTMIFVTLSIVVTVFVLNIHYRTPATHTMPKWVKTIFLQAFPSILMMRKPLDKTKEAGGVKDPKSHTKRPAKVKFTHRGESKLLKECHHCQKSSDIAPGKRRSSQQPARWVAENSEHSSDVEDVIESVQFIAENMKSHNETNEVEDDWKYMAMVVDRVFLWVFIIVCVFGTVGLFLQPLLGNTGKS
α6β2* nAChRs, sequence (Q9ERK7 26-501): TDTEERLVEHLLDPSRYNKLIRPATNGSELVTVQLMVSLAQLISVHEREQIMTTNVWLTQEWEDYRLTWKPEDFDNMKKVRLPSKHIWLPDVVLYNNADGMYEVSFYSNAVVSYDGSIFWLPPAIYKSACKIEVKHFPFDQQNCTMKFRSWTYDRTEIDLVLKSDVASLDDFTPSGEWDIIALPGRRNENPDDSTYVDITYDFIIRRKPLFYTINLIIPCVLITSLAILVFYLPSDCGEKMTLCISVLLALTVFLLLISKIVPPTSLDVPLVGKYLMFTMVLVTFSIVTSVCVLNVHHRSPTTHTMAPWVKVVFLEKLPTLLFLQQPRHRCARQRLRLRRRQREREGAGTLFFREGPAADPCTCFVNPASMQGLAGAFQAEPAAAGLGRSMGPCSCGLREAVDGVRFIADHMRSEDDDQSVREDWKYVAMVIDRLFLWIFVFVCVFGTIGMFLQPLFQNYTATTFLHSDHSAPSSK
α6β2* nAChRs, sequence (Q8BMN3 31-464 partner): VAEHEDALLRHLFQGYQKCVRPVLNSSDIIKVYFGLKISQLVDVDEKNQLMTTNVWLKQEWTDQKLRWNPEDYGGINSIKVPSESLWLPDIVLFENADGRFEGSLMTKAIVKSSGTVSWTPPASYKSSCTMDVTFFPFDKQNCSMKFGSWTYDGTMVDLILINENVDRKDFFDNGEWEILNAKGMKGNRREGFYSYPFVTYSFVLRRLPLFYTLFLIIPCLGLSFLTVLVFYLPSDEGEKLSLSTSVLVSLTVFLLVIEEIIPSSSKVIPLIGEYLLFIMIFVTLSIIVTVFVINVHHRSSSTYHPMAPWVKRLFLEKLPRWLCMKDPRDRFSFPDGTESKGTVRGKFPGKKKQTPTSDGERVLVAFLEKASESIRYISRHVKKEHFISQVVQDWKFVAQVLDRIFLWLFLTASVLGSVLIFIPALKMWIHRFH
T2 sequence (Q8BMN3 31-464, stated change not applied): as the sequence (Q8BMN3 31-464 partner) above
T2 sequence (Q9R0W9 31-494): as the sequence (Q9R0W9 31-494) above
T2 sequence (Q9ERK7 26-501 L349M/R365A/R366A/R368A): as the sequence (Q9ERK7 26-501) above, with L324M, R340A, R341A, R343A counted along it
T1 sequence (O70174 31-629): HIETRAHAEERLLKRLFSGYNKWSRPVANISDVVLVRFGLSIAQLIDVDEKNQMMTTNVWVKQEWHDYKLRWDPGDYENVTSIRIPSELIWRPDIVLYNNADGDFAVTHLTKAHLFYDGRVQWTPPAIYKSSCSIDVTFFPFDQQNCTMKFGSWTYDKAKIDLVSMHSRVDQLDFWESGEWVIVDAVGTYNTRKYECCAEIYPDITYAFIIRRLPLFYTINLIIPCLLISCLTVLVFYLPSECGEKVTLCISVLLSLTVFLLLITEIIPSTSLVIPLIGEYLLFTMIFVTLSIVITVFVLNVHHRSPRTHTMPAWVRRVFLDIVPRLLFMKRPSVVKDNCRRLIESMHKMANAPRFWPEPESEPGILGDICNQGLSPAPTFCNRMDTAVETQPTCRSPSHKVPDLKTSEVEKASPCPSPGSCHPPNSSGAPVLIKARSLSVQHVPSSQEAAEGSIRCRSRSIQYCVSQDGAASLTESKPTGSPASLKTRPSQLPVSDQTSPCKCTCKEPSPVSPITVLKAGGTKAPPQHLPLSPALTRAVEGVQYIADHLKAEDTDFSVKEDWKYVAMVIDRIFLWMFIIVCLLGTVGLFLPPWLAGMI
T1 sequence (Q9ERK7 26-501 L349M/R365A/R366A/R368A): as the sequence (Q9ERK7 26-501) above, with L324M, R340A, R341A, R343A counted along it

C1=C(/c2cncnc2)CCCNCC/1 [TC299423, (E)-5-(pyrimidin-5-yl)-1,2,3,4,7,8-hexahydroazocine]
EC50 (α6β2* nAChRs; WT striatal synaptosomes): 30 ± 0.006 nM
Maximal response, α-CtxMII-sensitive [3H]-dopamine release (α6β2* nAChRs; calculated from Michaelis–Menten curve fit): 0.93 ± 0.08 units
Emax (α6β2* nAChRs; read-out: Neurotransmitter release % Efficacy, WT striatal synaptosomes): 50 ± 20%
Emax (α6β2* nAChRs; read-out: Neurotransmitter release % Efficacy, α5KO striatal synaptosomes): 54 ± 14%
EC50 (α6β2* nAChRs; α5KO striatal synaptosomes): 50 nM
EC50 (α4-GFPβ2DM nAChRs): 100 ± 20 nM
EC50 (α6-GFPβ2DMβ3 nAChRs; range over patch-clamp recordings and [3H]-dopamine release assays, read-out: EC50 for α6β2* nAChRs): 30 to 60 nM
EC50 (α6-GFPβ2DMβ3 nAChRs; α6β2β3 transfected in Neuro-2a cells, read-out: Patch clamp EC50): 40 ± 10 nM
Hit (Muscarinic, M5 (h)): FALSE
Inhibition (Muscarinic, M5 (h); [3H]Scopolamine, N-Methyl): 2.24%
Hit [1]: FALSE
Inhibition ([1]; [3H]Kainic acid): -6.93%
Hit (Serotonin, 5HT3): FALSE
Inhibition (Serotonin, 5HT3; [3H]GR 65630): 7.50%
Hit [2]: FALSE
Inhibition ([2]; [3H]Nitrendipine): -3.91%
Responding for nicotine infusions vs vehicle (male Wistar rats): no statistically significant changes
